Data as given in patent US20180036289A1 (Gilead Sciences, Inc., priority 2016, published 2018).

Tests used:
Test in all cases: Cell proliferation assay (ATPlite), drug with vs without cobicistat
Type in all cases: cell-based
MG-63 = MG-63 cell line; 120 hours incubation
Procedure: (§1) All cell lines were obtained from the American Type Culture Collection (ATCC) Manassas, Va. (US). Master and working cell banks (MCB and WCB) were prepared by subculturing in ATCC-recommended media and freezing protocols (www.atcc.org). Cell line stocks for the assays were prepared from the WCB. The MCB, WCBs and assay stocks were prepared within respectively 3, 6 and 9 passages of the ATCC vial.
(§2) Solid powders of reference compounds were weighed on a calibrated balance and dissolved in 100% DMSO. DMSO samples were stored at room temperature. At the day of the experiment, the compound stock was diluted in 3.16 fold steps in 100% DMSO to obtain a 9-point dilution series. This was further diluted 31.6 times in 20 mM sterile Hepes buffer pH 7.4. A volume of 5 μl was transferred to the cells to generate a test concentration range from 3.16×10^−5M to 3.16×10^−9 M in duplicate. The final DMSO concentration during incubation was […] in all wells.
(§3) An assay stock was thawed and diluted in its ATCC recommended medium and dispensed in a 384-well plate, depending on the cell line used, at a concentration of 200-3200 cells per well in 45 μl medium. For each used cell line the optimal cell density is used. The margins of the plate were filled with phosphate-buffered saline. Plated cells were incubated in a humidified atmosphere of 5% CO2 at 37° C. After 24 hours, 5 μl of compound dilution was added and plates were further incubated for another 120 hours. After 120 hours, 25 μl of ATPlite 1Step™ (PerkinElmer) solution was added to each well, and subsequently shaken for 2 minutes. After 10 minutes of incubation in the dark, the luminescence was recorded on an Envision multimode reader (PerkinElmer).
(§4) IC50s were calculated by non-linear regression using IDBS XLfit 5. The percentage growth after 120 h (%-growth) was calculated as follows: 100%×(luminescencet=120h/luminescenceuntreated,t=120h). This was fitted to the ^10log compound concentration (conc) by a 4-parameter logistics curve: %−growth=bottom+(top−bottom)/(1+10^(log IC50-conc)*hill)), where hill is the Hill-coefficient, and bottom and top the asymptotic minimum and maximum cell growth that the compound allows in that assay.

Hs 578T = Hs 578T cell line; 120 hours incubation
Procedure: as §1, §2, §3, §4

769-P = 769-P cell line; 120 hours incubation
Procedure: as §1, §2, §3, §4

LNCaP FGC = LNCaP FGC cell line; 120 hours incubation
Procedure: as §1, §2, §3, §4

SW620 = SW620 cell line; 120 hours incubation
Procedure: as §1, §2, §3, §4

OVCAR-3 = OVCAR-3 cell line; 120 hours incubation
Procedure: as §1, §2, §3, §4

SNU-C2B = SNU-C2B cell line; 120 hours incubation
Procedure: as §1, §2, §3, §4

HCT-15 = HCT-15 cell line; 120 hours incubation
Procedure: as §1, §2, §3, §4

MIA PaCa-2 = MIA PaCa-2 cell line; 120 hours incubation
Procedure: as §1, §2, §3, §4

T98G = T98G cell line; 120 hours incubation
Procedure: as §1, §2, §3, §4

A-704 = A-704 cell line; 120 hours incubation
Procedure: as §1, §2, §3, §4

786-O = 786-O cell line; 120 hours incubation
Procedure: as §1, §2, §3, §4

AU-565 = AU-565 cell line; 120 hours incubation
Procedure: as §1, §2, §3, §4

CAL 27 = CAL 27 cell line; 120 hours incubation
Procedure: as §1, §2, §3, §4

SR = SR cell line; 120 hours incubation
Procedure: as §1, §2, §3, §4

C-33 A = C-33 A cell line; 120 hours incubation
Procedure: as §1, §2, §3, §4

SK-N-AS = SK-N-AS cell line; 120 hours incubation
Procedure: as §1, §2, §3, §4

SW48 = SW48 cell line; 120 hours incubation
Procedure: as §1, §2, §3, §4

SW480 = SW480 cell line; 120 hours incubation
Procedure: as §1, §2, §3, §4

KU812 = KU812 cell line; 120 hours incubation
Procedure: as §1, §2, §3, §4

DU 145 = DU 145 cell line; 120 hours incubation
Procedure: as §1, §2, §3, §4

T24 = T24 cell line; 120 hours incubation
Procedure: as §1, §2, §3, §4

DoTc2 4510 = DoTc2 4510 cell line; 120 hours incubation
Procedure: as §1, §2, §3, §4

SUP-T1 = SUP-T1 cell line; 120 hours incubation
Procedure: as §1, §2, §3, §4

AsPC-1 = AsPC-1 cell line; 120 hours incubation
Procedure: as §1, §2, §3, §4

J82 = J82 cell line; 120 hours incubation
Procedure: as §1, §2, §3, §4

BxPC-3 = BxPC-3 cell line; 120 hours incubation
Procedure: as §1, §2, §3, §4

RPMI-7951 = RPMI-7951 cell line; 120 hours incubation
Procedure: as §1, §2, §3, §4

MOLT-4 = MOLT-4 cell line; 120 hours incubation
Procedure: as §1, §2, §3, §4

LoVo = LoVo cell line; 120 hours incubation
Procedure: as §1, §2, §3, §4

| Structure (SMILES) | Fold change in IC50 (IC50 [Drug + Cobicistat]/IC50 [Drug]) (MG-63) [fold] | Fold change in IC50 (IC50 [Drug + Cobicistat]/IC50 [Drug]) (Hs 578T) [fold] | Fold change in IC50 (IC50 [Drug + Cobicistat]/IC50 [Drug]) (769-P) [fold] | Fold change in IC50 (IC50 [Drug + Cobicistat]/IC50 [Drug]) (LNCaP FGC) [fold] | Fold change in IC50 (IC50 [Drug + Cobicistat]/IC50 [Drug]) (SW620) [fold] | Fold change in IC50 (IC50 [Drug + Cobicistat]/IC50 [Drug]) (OVCAR-3) [fold] | Fold change in IC50 (IC50 [Drug + Cobicistat]/IC50 [Drug]) (SNU-C2B) [fold] | Fold change in IC50 (IC50 [Drug + Cobicistat]/IC50 [Drug]) (HCT-15) [fold] | Fold change in IC50 (IC50 [Drug + Cobicistat]/IC50 [Drug]) (MIA PaCa-2) [fold] | Fold change in IC50 (IC50 [Drug + Cobicistat]/IC50 [Drug]) (T98G) [fold] | Fold change in IC50 (IC50 [Drug + Cobicistat]/IC50 [Drug]) (A-704) [fold] | Fold change in IC50 (IC50 [Drug + Cobicistat]/IC50 [Drug]) (786-O) [fold] | Fold change in IC50 (IC50 [Drug + Cobicistat]/IC50 [Drug]) (AU-565) [fold] | Fold change in IC50 (IC50 [Drug + Cobicistat]/IC50 [Drug]) (CAL 27) [fold] | Fold change in IC50 (IC50 [Drug + Cobicistat]/IC50 [Drug]) (SR) [fold] | Fold change in IC50 (IC50 [Drug + Cobicistat]/IC50 [Drug]) (C-33 A) [fold] | Fold change in IC50 (IC50 [Drug + Cobicistat]/IC50 [Drug]) (SK-N-AS) [fold] | Fold change in IC50 (IC50 [Drug + Cobicistat]/IC50 [Drug]) (SW48) [fold] | Fold change in IC50 (IC50 [Drug + Cobicistat]/IC50 [Drug]) (SW480) [fold] | Fold change in IC50 (IC50 [Drug + Cobicistat]/IC50 [Drug]) (KU812) [fold] | further results |
| --- | --- | --- | --- | --- | --- | --- | --- | --- | --- | --- | --- | --- | --- | --- | --- | --- | --- | --- | --- | --- | --- |
| Cc1nc(Nc2ncc(C(=O)Nc3c(C)cccc3Cl)s2)cc(N2CCN(CCO)CC2)n1 [dasatinib] | 2.9 | 2.5 | 3.8 | 1.3 | 3.2 | 1.6 | 0.9 | 2.6 | 2.2 | 2.3 | 1.0 | 1.6 | 8.4 | 1.3 | 1.9 | 1.2 | 1.6 | 2.2 | 1.0 | 1.5 | Fold change in IC50 (IC50 [Drug + Cobicistat]/IC50 [Drug]) (DU 145): 3.6 fold; Fold change in IC50 (IC50 [Drug + Cobicistat]/IC50 [Drug]) (T24): 3.9 fold; Fold change in IC50 (IC50 [Drug + Cobicistat]/IC50 [Drug]) (DoTc2 4510): 3.0 fold; Fold change in IC50 (IC50 [Drug + Cobicistat]/IC50 [Drug]) (SUP-T1): 1.4 fold; Fold change in IC50 (IC50 [Drug + Cobicistat]/IC50 [Drug]) (AsPC-1): 1.2 fold; Fold change in IC50 (IC50 [Drug + Cobicistat]/IC50 [Drug]) (J82): 2.1 fold; Fold change in IC50 (IC50 [Drug + Cobicistat]/IC50 [Drug]) (BxPC-3): 2.2 fold; Fold change in IC50 (IC50 [Drug + Cobicistat]/IC50 [Drug]) (RPMI-7951): 3.0 fold; Fold change in IC50 (IC50 [Drug + Cobicistat]/IC50 [Drug]) (MOLT-4): 1.1 fold; Fold change in IC50 (IC50 [Drug + Cobicistat]/IC50 [Drug]) (LoVo): 1.0 fold |
| CC(=O)O[C@@]12CO[C@@H]1C[C@H](O)[C@@]1(C)C(=O)[C@H](O)C3=C(C)[C@@H](OC(=O)[C@H](O)[C@@H](NC(=O)OC(C)(C)C)c4ccccc4)C[C@@](O)([C@@H](OC(=O)c4ccccc4)[C@H]21)C3(C)C [docetaxel] | 3.3 | 1.9 | 3.0 | 3.8 | 2.7 | 2.2 | 4.8 | 2.8 | 4.2 | 7.7 | 2.3 | 4.2 | 3.2 | 1.4 | 3.6 | 1.5 | 3.3 | 1.6 | 2.3 | 5.6 | Fold change in IC50 (IC50 [Drug + Cobicistat]/IC50 [Drug]) (DU 145): 4.8 fold; Fold change in IC50 (IC50 [Drug + Cobicistat]/IC50 [Drug]) (T24): 6.3 fold; Fold change in IC50 (IC50 [Drug + Cobicistat]/IC50 [Drug]) (DoTc2 4510): 5.3 fold; Fold change in IC50 (IC50 [Drug + Cobicistat]/IC50 [Drug]) (SUP-T1): 4.5 fold; Fold change in IC50 (IC50 [Drug + Cobicistat]/IC50 [Drug]) (AsPC-1): 5.0 fold; Fold change in IC50 (IC50 [Drug + Cobicistat]/IC50 [Drug]) (J82): 3.5 fold; Fold change in IC50 (IC50 [Drug + Cobicistat]/IC50 [Drug]) (BxPC-3): 3.0 fold; Fold change in IC50 (IC50 [Drug + Cobicistat]/IC50 [Drug]) (RPMI-7951): 3.3 fold; Fold change in IC50 (IC50 [Drug + Cobicistat]/IC50 [Drug]) (MOLT-4): 1.7 fold; Fold change in IC50 (IC50 [Drug + Cobicistat]/IC50 [Drug]) (LoVo): 2.0 fold |
| COc1cccc2c1C(=O)c1c(O)c3c(c(O)c1C2=O)C[C@@](O)(C(=O)CO)C[C@@H]3O[C@H]1C[C@H](N)[C@H](O)[C@H](C)O1 [doxorubicin] | 2.4 | 1.7 | 5.1 | 1.8 | 2.6 | 2.5 | 1.2 | 2.0 | 2.2 | 1.4 | 1.3 | 2.3 | 2.1 | 1.9 | 1.8 | 1.9 | 2.3 | 1.8 | 2.5 | 2.9 | Fold change in IC50 (IC50 [Drug + Cobicistat]/IC50 [Drug]) (DU 145): 2.1 fold; Fold change in IC50 (IC50 [Drug + Cobicistat]/IC50 [Drug]) (T24): 1.8 fold; Fold change in IC50 (IC50 [Drug + Cobicistat]/IC50 [Drug]) (DoTc2 4510): 1.7 fold; Fold change in IC50 (IC50 [Drug + Cobicistat]/IC50 [Drug]) (SUP-T1): 2.0 fold; Fold change in IC50 (IC50 [Drug + Cobicistat]/IC50 [Drug]) (AsPC-1): 1.3 fold; Fold change in IC50 (IC50 [Drug + Cobicistat]/IC50 [Drug]) (J82): 2.2 fold; Fold change in IC50 (IC50 [Drug + Cobicistat]/IC50 [Drug]) (BxPC-3): 2.2 fold; Fold change in IC50 (IC50 [Drug + Cobicistat]/IC50 [Drug]) (RPMI-7951): 2.3 fold; Fold change in IC50 (IC50 [Drug + Cobicistat]/IC50 [Drug]) (MOLT-4): 1.9 fold; Fold change in IC50 (IC50 [Drug + Cobicistat]/IC50 [Drug]) (LoVo): 2.0 fold |
